For this assay, the target named is T1, Cystathionine β-synthase (CBS) (Homo sapiens, UniProt P35520).
T1 sequence (P35520 1-408): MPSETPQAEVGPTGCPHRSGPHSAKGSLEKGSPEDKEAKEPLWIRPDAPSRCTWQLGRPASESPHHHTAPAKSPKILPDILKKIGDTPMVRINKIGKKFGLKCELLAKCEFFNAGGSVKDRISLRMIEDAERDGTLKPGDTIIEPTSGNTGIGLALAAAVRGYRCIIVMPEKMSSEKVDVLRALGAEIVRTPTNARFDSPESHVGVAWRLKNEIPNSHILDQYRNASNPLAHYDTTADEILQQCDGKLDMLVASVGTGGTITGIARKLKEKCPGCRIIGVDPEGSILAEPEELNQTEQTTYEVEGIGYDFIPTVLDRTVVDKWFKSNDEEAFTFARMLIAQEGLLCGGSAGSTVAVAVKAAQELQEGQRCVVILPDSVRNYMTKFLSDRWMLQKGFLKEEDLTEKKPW
Briefly: Loss of purified enzyme activity. The format is biochemical.

Consider `O=NOO` [peroxynitrite, oxoperoxonitrate(1-)], for which the IC50 is approximately 150 µM.

For orientation: IC50 means the point on the concentration scale where inhibition reaches its midpoint. High values mean weaker potency in that assay, low ones greater potency in that assay.

(Values after PMC2783175 (Archives of biochemistry and biophysics, 2009).)
